In BindingDB's records for doi:10.7270/Q2HQ3XB9 (Nmmlsc, 2008) one finds EC50 data, which are given here for 20 compounds.

SMILES strings stand for the structures.

In the first assay the target is T1, Estrogen receptor (Homo sapiens, UniProt P03372).
T1 sequence (P03372 whole entry): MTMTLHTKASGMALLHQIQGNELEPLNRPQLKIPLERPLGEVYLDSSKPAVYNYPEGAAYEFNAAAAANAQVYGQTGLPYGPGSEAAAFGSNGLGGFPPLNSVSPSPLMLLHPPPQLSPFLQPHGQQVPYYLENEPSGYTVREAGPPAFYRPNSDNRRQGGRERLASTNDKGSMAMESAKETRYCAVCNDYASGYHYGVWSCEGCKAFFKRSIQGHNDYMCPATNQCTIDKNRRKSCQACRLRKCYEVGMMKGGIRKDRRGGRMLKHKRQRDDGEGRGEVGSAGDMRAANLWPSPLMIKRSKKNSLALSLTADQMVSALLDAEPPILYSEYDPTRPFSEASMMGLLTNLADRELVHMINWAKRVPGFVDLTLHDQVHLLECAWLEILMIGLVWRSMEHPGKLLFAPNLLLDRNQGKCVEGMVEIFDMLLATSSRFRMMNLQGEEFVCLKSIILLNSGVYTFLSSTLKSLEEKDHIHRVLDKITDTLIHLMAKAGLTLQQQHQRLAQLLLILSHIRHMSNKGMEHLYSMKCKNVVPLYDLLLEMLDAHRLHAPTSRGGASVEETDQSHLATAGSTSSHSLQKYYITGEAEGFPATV
The experiment in a line: ERalpha binding competitors, concentration series, dose response, cell-based, Cos7 ERalpha-GFP, flow cytometry (AID 1223).
Details: not given
With `Brc1cc2c(cc1[C@@H]1Nc3ccccc3[C@@H]3C=CC[C@@H]31)OCO2`, the EC50 was found to be 782 nM.

Turning to `CC(=O)c1ccc2c(c1)C1C=CCC1C(c1cccc([N+](=O)[O-])c1)N2` (stereo not given) [1-[4-(3-nitrophenyl)-3a,4,5,9b-tetrahydro-3H-cyclopenta[c]quinolin-8-yl]ethanone], the EC50 is > 10000 nM.

`COc1ccccc1N1CCN(C(=O)c2ccc3nc(-c4ccco4)c(-c4ccco4)nc3c2)CC1` [2,3-di-2-furyl-6-{[4-(2-methoxyphenyl)piperazin-1-yl]carbonyl}quinoxaline] came in with a concentration giving a half-maximal response (EC50) of 15.4 nM.

In the case of `O=C(Nc1cc(C(F)(F)F)ccc1N1CCOCC1)C1Cc2ccccc2CN1C(=O)c1ccco1` (stereo not given) [2-(2-furoyl)-N-[2-morpholino-5-(trifluoromethyl)phenyl]-3,4-dihydro-1H-isoquinoline-3-carboxamide], the response was half-maximal at 367 nM (EC50).

For `Cc1cc(C)cc(OCC(=O)Nc2ccc(N3CCCC3)cc2)c1` [2-(3,5-dimethylphenoxy)-N-(4-pyrrolidin-1-ylphenyl)acetamide], the EC50 is > 10000 nM.

On to `COc1nc(-c2ccc(Cl)cc2)ccc1-c1noc(-c2ccco2)n1` [3-[6-(4-chlorophenyl)-2-methoxy-3-pyridinyl]-5-(2-furanyl)-1,2,4-oxadiazole], for which a half-maximal response (EC50) required 48.7 nM.

Consider `CC(=O)Oc1ccc(C2Nc3c(C(=O)O)ccc([N+](=O)[O-])c3C3C=CCC32)cc1` (stereo not given) [4-(4-acetoxyphenyl)-9-nitro-3a,4,5,9b-tetrahydro-3H-cyclopenta[c]quinoline-6-carboxylic acid], for which the EC50 was > 10000 nM.

As for `CCn1c(=NC(=O)c2ccc(-n3c(O)ccc3O)cc2)sc2c(OC)ccc(OC)c21` [4-[2,5-bis(oxidanylidene)pyrrolidin-1-yl]-N-(3-ethyl-4,7-dimethoxy-1,3-benzothiazol-2-ylidene)benzamide], the EC50 is > 10000 nM.

Turning to `O=C(COC(=O)CCC(=O)c1cccs1)NCc1ccco1` [4-keto-4-(2-thienyl)butyric acid [2-(2-furfurylamino)-2-keto-ethyl] ester], a half-maximal effect (EC50) was put at 4.25 nM.

`Cc1cc(C)c2c(c1)[C@@H]1C=CC[C@@H]1[C@H](c1ccc(S(=O)(=O)N3CCOCC3)cc1)N2` [(3aS,4R,9bR)-6,8-dimethyl-4-[4-(morpholin-4-ylsulfonyl)phenyl]-3a,4,5,9b-tetrahydro-3H-cyclopenta[c]quinoline] came in with an EC50 of 44.4 nM.

For the compound `C[C@]12CC[C@@H]3c4ccc(O)cc4[C@@H](O)C[C@H]3[C@@H]1CC[C@@H]2O` [(6S,8R,9S,13S,14S,17S)-13-methyl-6,7,8,9,11,12,14,15,16,17-decahydrocyclopenta[a]phenanthrene-3,6,17-triol], a half-maximal effect (EC50) was put at 36.6 nM.

In turn, `COc1ccc(C(=O)NN=C(C)c2ccc3c(c2)C2C=CCC2C(c2ccccc2)N3)cc1` (stereo not given) [SMR000176871] showed an EC50 of 1430 nM.

Staying with this assay, now noted: inactive by the depositor's call.
Turning to `COc1cccc(NS(=O)(=O)c2ccc3c(c2)C2C=CCC2C(c2ccc(C(=O)O)cc2)N3)c1` (stereo not given), the EC50 stood at 3880 nM.

`COc1ccc(NS(=O)(=O)c2ccc3c(c2)[C@H]2C=CC[C@H]2[C@@H](c2ccc(C(=O)O)cc2)N3)cc1` came in with an EC50 of 3600 nM. The EC50 values of the last two compounds are within 1.5-fold of each other.

In turn, `O=C(OCC(=O)N1CCN(C(=O)c2ccco2)CC1)c1cc(-c2ccco2)nc2ccccc12` [2-(2-furanyl)-4-quinolinecarboxylic acid [2-[4-[2-furanyl(oxo)methyl]-1-piperazinyl]-2-oxoethyl] ester] returned an EC50 of 33.9 nM.

As to `Cc1nnc(SCC(=O)NC(=O)NCc2ccco2)n1Cc1ccccc1` [2-[(4-benzyl-5-methyl-1,2,4-triazol-3-yl)sulfanyl]-N-(furan-2-ylmethylcarbamoyl)acetamide], the EC50 worked out at 44.7 nM.

For `O=C(O)c1cc(Cl)c2c(c1)[C@@H]1C=CC[C@@H]1[C@H](c1ccc(S(=O)(=O)N3CCOCC3)cc1)N2` [(3aS,4R,9bR)-6-chloranyl-4-(4-morpholin-4-ylsulfonylphenyl)-3a,4,5,9b-tetrahydro-3H-cyclopenta[c]quinoline-8-carboxylic acid], the response was half-maximal at 1010 nM (EC50). This EC50 lies about 23-fold higher than the previous one.

`Cc1cc(C(=O)Nc2sc3c(c2C#N)CCC3)no1` [MLS000066325]: the EC50 came to 3.17 nM.

Take `Cn1ccnc1SCC(=O)Nc1ccc2nc(SCC(=O)NC3CC3)sc2c1` [MLS000085771]: the response was half-maximal at 24.3 nM (EC50).

The compound `COc1ccc(CNC(=O)c2cc(-c3cccs3)on2)cc1` [MLS000087249] came in with an EC50 of 9.68 nM.
